Here are results for one molecule from ChEMBL document CHEMBL5726113, “Compounds and methods for kinase modulation, and indications therefor” (2017).

The assay deals with RAF proto-oncogene serine/threonine-protein kinase (Homo sapiens, UniProt P04049). Description: Biochemical Assay: Assays for biochemical and cell based activity are known in the art, for example, as described in PCT publication WO 2007/002433, the disclosure of which is hereby incorporated by reference as it relates to such assays. For example, the biochemical activity IC50 values are determined with respect to inhibition of B-Raf kinase activity, c-Raf-1 kinase activity, or B-Raf V600E kinase activity, where inhibition of phosphorylation of a peptide substrate is measured as a function of compound concentration. Compounds to be tested are diluted in dimethyl sulfoxide to a concentration of 0.1 mM. These are serially diluted 15 μL into 30 μL of dimethyl sulfoxide seven times in 96 well plates for a total of 8 dilution points, and for each dilution point 1 μL is added to a well of an assay plate. Plates are prepared such that each well in a 384 well plate contains 1 μL of compound in 10 μL volume with 0.1 ng Raf enzyme (i.e. any of B-Raf, c-Raf-1 or B-Raf V600E, Upstate Biotechnology or prepared by methods known to one of skill in the art), 50 mM HEPES, pH 7.0, 50 mM NaCl, 2 mM MgCl2, 1 mM MnCl2, 0.01% Tween-20, 1 mM DTT, and 100 nM biotin-MEK1 as substrate. The reaction is started with addition of 10 μL of 200 μM ATP (i.e. final 100 μM ATP). […].
Sequence of RAF proto-oncogene serine/threonine-protein kinase (P04049 whole entry): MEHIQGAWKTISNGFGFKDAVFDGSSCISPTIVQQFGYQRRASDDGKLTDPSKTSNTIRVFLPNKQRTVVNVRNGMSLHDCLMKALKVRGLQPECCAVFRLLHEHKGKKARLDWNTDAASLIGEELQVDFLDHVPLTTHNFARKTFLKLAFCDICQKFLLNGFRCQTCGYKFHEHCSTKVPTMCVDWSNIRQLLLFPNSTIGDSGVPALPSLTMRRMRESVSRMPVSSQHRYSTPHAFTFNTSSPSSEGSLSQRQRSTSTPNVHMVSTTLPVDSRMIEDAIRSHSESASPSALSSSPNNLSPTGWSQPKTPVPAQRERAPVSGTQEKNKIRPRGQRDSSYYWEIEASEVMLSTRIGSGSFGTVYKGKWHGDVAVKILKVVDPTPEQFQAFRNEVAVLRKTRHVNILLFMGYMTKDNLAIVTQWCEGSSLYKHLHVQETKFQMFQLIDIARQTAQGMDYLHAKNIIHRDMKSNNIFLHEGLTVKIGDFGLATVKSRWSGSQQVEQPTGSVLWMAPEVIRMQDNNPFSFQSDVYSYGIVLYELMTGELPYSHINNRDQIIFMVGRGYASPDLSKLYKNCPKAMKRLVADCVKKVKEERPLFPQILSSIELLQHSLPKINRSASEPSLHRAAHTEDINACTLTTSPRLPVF

The molecule `CCCS(=O)(=O)Nc1ccc(F)c(C(=O)c2c[nH]c3ncnc(Nc4ccccc4)c23)c1F` gave an IC50 of less than 0.1 µM.

Broadly, the IC50 is the point on the concentration scale where inhibition reaches its midpoint. A lower IC50 goes with greater potency in that assay.
